# Source: US10525058B2, “Urea derivative or pharmacologically acceptable salt thereof” (KYORIN PHARMACEUTICAL CO., LTD., priority 2015, dated 2020)
# Target: T1, human FPRL1 (Homo sapiens, UniProt P25090)
# T1 construct: expressed in transfected cells; host or cells: HEK293 (JCRB9068, NIBIO), transient co-transfection with pCMV-script vectors
# T1 sequence (P25090 1-351): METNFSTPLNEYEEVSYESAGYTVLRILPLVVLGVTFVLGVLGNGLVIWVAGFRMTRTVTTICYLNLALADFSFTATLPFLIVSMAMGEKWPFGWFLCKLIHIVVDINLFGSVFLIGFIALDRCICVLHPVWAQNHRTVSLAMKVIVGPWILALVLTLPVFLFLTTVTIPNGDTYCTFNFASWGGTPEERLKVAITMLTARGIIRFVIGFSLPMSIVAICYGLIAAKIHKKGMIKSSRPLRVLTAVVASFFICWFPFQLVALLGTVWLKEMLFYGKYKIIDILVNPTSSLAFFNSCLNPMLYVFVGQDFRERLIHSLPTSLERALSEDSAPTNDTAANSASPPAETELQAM
# Assay: Measurement test of agonist activity on human FPRL1 (calcium mobilization in HEK293 cells transfected with human FPRL1 and Gα15)
# Type: cell-based
# Conditions: Fluo-4 NW, molar concentration giving 50% maximum activation, read-out: Efficacy EC50
# Source text: Measurement test of agonist activity on human FPRL1
# (1-1) Construction of Human FPRL1 Expression Vector
# Human FPRL (SEQ ID NO: 3) was amplified in a PCR reaction from cDNA derived from a monocytic leukemia cell line THP-1 (TIB-202, ATCC) as a template using a forward primer shown in SEQ ID NO: 1, a reverse primer shown in SEQ ID NO: 2, and KOD-plus-ver. 2 (KOD-211, TOYOBO CO., LTD.). […] 2 (LGK-201, TOYOBO CO., LTD.). The ligation product was transformed into DH5α (DNA-901, TOYOBO CO., LTD.), cultured on a 100 μg/mL kanamycin-containing LB medium, and purified with HiSpeed Plasmid Maxi Kit (12662, QIAGEN).
# (1-2) Construction of Human Gα15 Expression Vector
# 2. The amplified PCR product and pCMV-script vector were digested with Hind III and XhoI, and the resultant digest was ligated with Ligation high ver. 2. The ligation product was transformed into DH5α, cultured on a 100 μg/mL kanamycin-containing LB medium, and purified with HiSpeed Plasmid Maxi Kit.
# (2-1) Method for Culturing and Subculturing HEK293
# HEK293 (JCRB9068, NIBIO) was cultured in an incubator at 5% CO2 and 37° C. using DMEM (11885-092, GIBCO) containing 10% FBS and 1cPenicillin-Streptomycin (15140-122, GIBCO).
# (2-2) Introduction of Human FPRL1 and Gal5 Expression Vectors
# The cells were inoculated in a Collagen Type 1 coated 6-well plate (4810-010, IWAKI) to 5×10^5 cells/2.5 mL/well and cultured overnight. On the next day, human FPRL1 and Gα15 expression vectors were introduced using Lipofectamine 2000 transfection reagent (11668-019, Life technologies). First, the human FPRL1 and Gal5 expression vectors were diluted with Opti-MEM I Reduced Serum Medium (31985-070, GIBCO) to 2 μg/250 μL/well and Lipofectamine 2000 transfection reagent was diluted with Opti-MEM I Reduced Serum Medium to be 4 μL/250 μL/well. The vectors and reagent were softly diffused, and incubated at room temperature for 5 minutes. The vector solution was mixed with Lipofectamine 2000 transfection reagent in equal amounts. In order to form a complex of the vectors and Lipofectamine 2000 transfection reagent, the mixture was incubated at room temperature for 20 minutes, and added at 500 μL/well to the medium of inoculated cells. The treated cells were cultured for 24 hours, inoculated in Poly-D-Lysine coated 96-well plate (356640, BD Biosciences) at a cell density of 7×10^4 cells/100 μL/well, and cultured for another 24 hours. The resultant cells were used in a measurement test of calcium mobilization in the cells.
# (3) Evaluation of Agonist Activity on Human FPRL1 (Test of Calcium Mobilization in Cell)
# An appropriate amount of each test compound was first weighed, and dissolved to 10^−2 M by addition of dimethyl sulfoxide (DMSO). […] The plate dispensed with compound solutions was set in Flexstation (Molecular Devices, LLC.) until measurement.
# Subsequently, 10 mL of assay buffer and 100 μL of probenecid solution (dissolved by addition of 1 mL of assay buffer to a 250 mM stock) were sufficiently mixed and dissolved in Fluo-4 NW dye mix. The medium of cells inoculated on the previous day was removed, the dissolved Fluo-4 NW dye mix was added in an amount of 90 μL/well, and a reaction was caused in the dark at 37° C. for 45 minutes. The cells after the reaction and chips for addition of the compound were set in Flexstation, and variation in fluorescence intensity over time after addition of the compound was measured [amount of added compound=10 μL (final concentration: 10^−5 M to 10^−12 M), excitation wavelength: 485 nm, measured wavelength: 525 nm, 1.5 sec×54 read]. A value was calculated by subtracting a base value during addition of DMSO from the maximum value of relative fluorescence unit, and analyzed. All the measurement data were analyzed with Prism 4 that was a data analysis tool.
row,Compound,EC50 [nM]
1,"COc1ccc([C@@H]2COC[C@H]2NC(=O)Nc2ccc(Cl)cc2)cc1 (racemic) [Example 1-9, (±)-trans-1-(4-chlorophenyl)-3-[4-(4-methoxyphenyl)tetrahydrofuran-3-yl]urea]",2.3
2,"COc1ccc([C@@H]2CCNC(=O)C2NC(=O)Nc2ccc(Cl)cc2)cc1 (mixture of isomers) [Example 1-11, (±)-trans-1-(4-chlorophenyl)-3-[4-(4-methoxyphenyl)-2-oxopiperidin-3-yl]urea]",0.11
3,"COc1ccc([C@@H]2COC[C@@H]2NC(=O)Nc2ccc(C#N)cc2)cc1 (racemic) [Example 1-6, (±)-cis-1-(4-cyanophenyl)-3-[4-(4-methoxyphenyl)-tetrahydrofuran-3-yl]urea]",10
4,"COc1ccc([C@@H]2CC(=O)N[C@H]2NC(=O)Nc2ccc(F)cc2)cc1 (racemic) [Example 6-1, (±)-trans-1-(4-Fluorophenyl)-3-[3-(4-methoxyphenyl)-5-oxopyrrolidin-2-yl]urea]",5.6
5,"COc1ccc([C@@H]2COC[C@@H]2NC(=O)Nc2ccc(Cl)s2)cc1 (racemic) [Example 1-7, (±)-cis-1-(5-chlorothiophen-2-yl)-3-[4-(4-methoxyphenyl)-tetrahydrofuran-3-yl]urea]",5.2
6,"COc1ccc([C@@H]2COC[C@@H]2NC(=O)Nc2ccc(Cl)cc2)cc1 (racemic) [Example 1-1, (±)-cis-1-(4-Chlorophenyl)-3-[4-(4-methoxyphenyl)tetrahydrofuran-3-yl]urea]",0.25
7,"COc1ccc(C2CS(=O)(=O)CC2NC(=O)Nc2ccc(Cl)cc2)cc1 (racemic) [Example 1-10, (±)-1-(4-chlorophenyl)-3-[4-(4-methoxyphenyl)-1,1-dioxideterrahydrothiophen-3-yl]urea]",0.29
8,"COc1ccc([C@@H]2COC[C@@H]2NC(=O)Nc2ccc(F)c(F)c2)cc1 (racemic) [Example 1-5, (±)-cis-1-(3,4-difluorophenyl)-3-[4-(4-methoxyphenyl)tetrahydrofuran-3-yl]urea]",12
9,"COc1ccc(C2COC(=O)N2NC(=O)Nc2ccc(Cl)cc2)cc1 (racemic) [Example 5-4, (±)-1-(4-chlorophenyl)-3-[4-(4-methoxyphenyl)-2-oxooxazolidin-3-yl]urea]",2.6

# Second part, the compound after the results:
row,EC50 [nM],Compound
1,14,"O=C(Nc1ccc(F)cc1)NC1COC[C@H]1c1ccc(Cl)cc1 (mixture of isomers) [Example 5-1, (±)-cis-1-[4-(4-Chlorophenyl)tetrahydrofuran-3-yl]-3-(4-fluorophenyl)urea]"
2,0.25,"COc1cc(F)c([C@@H]2Cn3ccnc3[C@H]2NC(=O)Nc2ccc(F)cc2)c(F)c1 (single isomer, unassigned) [Example 7-2, (−)-1-[(6R*,7S*)-6-(2,6-difluoro-4-methoxyphenyl)-6,7-dihydro-5H-pyrrolo[1,2-a]imidazol-7-yl]-3-(4-fluorophenyl)urea]"
3,0.29,"COc1ccc([C@@H]2CN3C(=O)CON=C3[C@H]2NC(=O)Nc2ccc(F)cc2)cc1 (relative stereo) [Example 10-1, 1-(4-Fluorophenyl)-3-[(7R*,8S*)-7-(4-methoxyphenyl)-4-oxo-4,6,7,8-tetrahydro-3H-pyrrolo[2,1-c][1,2,4]oxadiazin-8-yl]urea]"
4,2.5,"O=C(Nc1ccc(F)cc1)N[C@@H]1c2nnnn2C[C@H]1c1cc2c(cc1F)OCC2 (single isomer, unassigned) [Example 7-5, (−)-1-[(6R*,7S*)-6-(6-fluoro-2,3-dihydrobenzofuran-5-yl)-6,7-dihydro-5H-pyrrolo[1,2-d]tetrazol-7-yl]-3-(4-fluorophenyl)urea]"
5,0.36,"COc1cc(F)c([C@@H]2Cn3nnnc3[C@H]2NC(=O)Nc2ccc(F)cc2)c(F)c1 (single isomer, unassigned) [Example 7-4, (−)-1-[(6R*,7S*)-6-(2,6-difluoro-4-methoxyphenyl)-6,7-dihydro-5H-pyrrolo[1,2-d]tetrazol-7-yl]-3-(4-fluorophenyl)urea]"
6,0.03,"COc1cc(F)c([C@@H]2CN3C(=O)CCN=C3[C@H]2NC(=O)Nc2ccc(F)cc2)c(F)c1 (single isomer, unassigned) [Example 9-1, (−)-1-[(7R*,8S*)-7-(2,6-Difluoro-4-methoxyphenyl)-4-oxo-2,3,4,6,7,8-hexahydropyrrolo[1,2-a]pyrimidin-8-yl]-3-(4-fluorophenyl)urea]"
7,0.03,"COc1cc(F)c([C@@H]2CN3C(=O)CON=C3[C@H]2NC(=O)Nc2ccc(F)cc2)c(F)c1 (single isomer, unassigned) [Example 8-1, (−)-1-[(7R*,8S*)-7-(2,6-Difluoro-4-methoxyphenyl)-4-oxo-4,6,7,8-tetrahydro-3H-pyrrolo[2,1-c][1,2,4]oxadiazin-8-yl]-3-(4-fluorophenyl)urea]"
8,0.05,"COc1cc(F)c([C@@H]2Cn3c(C)nnc3C2NC(=O)Nc2ccc(F)cc2)c(F)c1 (single isomer, unassigned; (-)) [Example 7-1, (−)-1-[(6R*,7S*)-6-(2,6-Difluoro-4-methoxyphenyl)-3-methyl-6,7-dihydro-5H-pyrrolo[2,1-c][1,2,4]triazol-7-yl]-3-(4-fluorophenyl)urea]"
9,0.6,"COc1ccc([C@@H]2Cn3nnnc3[C@H]2NC(=O)Nc2ccc(F)cc2)cc1 (single isomer, unassigned) [Example 7-3, (−)-1-(4-fluorophenyl)-3-[(6R*,7S*)-6-(4-methoxyphenyl)-6,7-dihydro-5H-pyrrolo[1,2-d]tetrazol-7-yl]urea]"
10,0.97,"COc1cc(F)c([C@@H]2CN3CCCN=C3[C@H]2NC(=O)Nc2ccc(F)cc2)c(F)c1 (single isomer, unassigned) [Example 7-6, (−)-1-[(7R*,8S*)-7-(2,6-difluoro-4-methoxyphenyl)-2,3,4,6,7,8-hexahydropyrrolo[1,2-a]pyrimidin-8-yl]-3-(4-fluorophenyl)urea]"
11,3.78,"COc1cc(F)c([C@@H]2COC[C@@H]2NC(=O)Nc2ccc(F)cc2)c(F)c1 (racemic) [Example 1-8, (±)-cis-1-[4-(2,6-difluoro-4-methoxyphenyl)-tetrahydrofuran-3-yl]-3-(4-fluorophenyl)urea]"
